One data set has as its system NAAA. The settings on record: read-out: IC50, NAAA inhibition (reported), cited from earlier work.
Data set [1] addresses T1, recombinant human NAAA protein (Homo sapiens, UniProt Q02083).
T1 construct: purchased R&D Systems (Shanghai, China)
T1 sequence (Q02083 29-359): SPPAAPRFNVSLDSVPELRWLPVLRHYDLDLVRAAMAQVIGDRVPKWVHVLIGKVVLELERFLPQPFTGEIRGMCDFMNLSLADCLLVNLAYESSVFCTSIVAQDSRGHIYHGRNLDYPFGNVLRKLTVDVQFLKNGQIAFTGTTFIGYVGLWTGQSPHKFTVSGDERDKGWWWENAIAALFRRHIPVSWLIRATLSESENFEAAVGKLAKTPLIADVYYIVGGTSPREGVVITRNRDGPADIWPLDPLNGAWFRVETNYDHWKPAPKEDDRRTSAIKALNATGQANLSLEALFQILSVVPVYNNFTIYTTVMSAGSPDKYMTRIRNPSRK
Nature of the data set: Fluorometric NAAA activity assay (PAMCA hydrolysis). It counts as biochemical. The procedure:
(§1) Fluorometric NAAA activity measurement was used to evaluate the natural products inhibitory potency towards NAAA as previously reported with minor modifications ([West et al., 2012a]; [West et al., 2012b]). Briefly, in our initial screening, recombinant human NAAA protein was diluted in NAAA buffer (3 mM DTT, 0.1% Triton X-100, 0.05% BSA, 150 mM NaCl, pH 4.5) to 0.25 µg/ml and then 20 µL were transferred to a 96-well half-volume black plate followed by the addition of 2 µL of DMSO-diluted compounds at a final concentration of 50 µM. After shaking for 10 min on a shaking plate, 28 µL of the N-(4-methylcoumarin)-palmitamide (PAMCA) substrate in assay buffer (final concentration: 25 µM) were added, and the reaction was allowed to proceed at 37 °C for 30 min, then enzyme activity was monitored at a wavelength of 460 nm (excitation wavelength: 360 nm) on a multimode reader (Mithras LB 943, Berthold, Germany). Compounds showing > 50% inhibition were subjected to a series of two-fold dilutions for IC50 testing.
Although several compounds have been discovered as NAAA inhibitors, reports on natural derivatives are limited. Here, we constructed a small library of 465 natural compounds consisting of alkaloids, flavonoids, coumarins, terpenoids, polyacetylenes, and aliphatics for activity screening. First, we established a high-throughput screening system for NAAA inhibitors using the fluorogenic compound N-(4-methyl coumarin) palmitamide (PAMCA) as hydrolyzed substrate ([West et al., 2012b]). PAMCA was metabolized to the fluorescent 7-amino-4-methyl coumarin (AMC) and palmitic acid by NAAA at pH 4.5 ( Figure 1A ). […] To further confirm the effectiveness of the screening system, another two reported potent NAAA inhibitors, F96 and AM9053, were tested.

Data set [2] deals with LPS-induced BV-2 cells. Nature of the data set: Pro-inflammatory cytokine release in LPS-induced BV-2 cells (ELISA). It counts as cell-based. The settings on record: culture supernatant. On the procedure: (§2) The microglia cell line BV-2 was cultured in DMEM medium containing 10% fetal bovine serum and antibiotics (100 U/ml penicillin, 100 µg/ml streptomycin) and maintained in a humidified 5% CO2 incubator at 37°C. For the experiment, cells were seeded overnight into a 24-well plate for the cytokine assay or into 100-mm dishes for NAE extraction and quantification. The next day, the cells were incubated with fresh culture medium containing the indicated concentration of atractylodin for 0.5 h and following lipopolysaccharide (LPS) treatment (1 μg/ml). Cells incubated with vehicle only (DMSO, 0.1%) were used as control.
LPS was used to activate BV-2 cells to further assess the anti-inflammatory effects of atractylodin. […] Moreover, the ability to inhibit these inflammatory factors was stronger than the positive control drug dexamethasone (Dex) at a concentration of 10 µM ( Figure 6 ).

Data set [3] deals with LPS-induced BV-2 microglial cells. Nature of the data set: Nitrite production in LPS-induced BV-2 cells (Griess reagent). In kind it is cell-based. On the procedure:
as §2
The concentration of nitrite in the culture medium was determined using a Griess reagent kit that reflected the amount of NO released by cultured cells. Culture supernatants (75 μl) were reacted with an equal volume of Griess reagent kit for 30 min at room temperature, and the absorbance of the diazonium compound at a wavelength of 560 nm was measured.
The cytotoxicity of the NAAA inhibitors on BV-2 cells was assessed using CCK-8. […] NAAA is highly expressed in immune cells, including tissue macrophages, monocytes, and microglia. […] The concentrations of nitrite were monitored using the Griess reagent kit.

For data set [4], the system named is LPS-induced BV-2 cells. Nature of the data set: Cellular PEA and OEA levels in LPS-induced BV-2 cells (HPLC-MS/MS). In kind it is cell-based. Particulars: 10 μM, LPS 6 h, compared to LPS-treated control. The procedure: as §2
FAEs were extracted from BV-2 cells as previously reported ([Yang et al., 2015]). […] An ABI 3200 Q-Trap mass spectrometer (Applied Biosystems, Concord, Canada equipped with a 1100-LC system (Agilent, Shanghai, China) was used in this experiment. The precursor/product ion transitions in multiple reaction monitoring mode (MRM) were used for mass analysis and quantitation. The molecular ions were monitored at m/z 300.2/62.0 for PEA, m/z 326.1/62.0 for OEA, m/z 348.00/62.00 for AEA, m/z 379.10/287.10 for 2-AG, and m/z 313.1/62.0 for C17:1 FAE.
To further investigate the contribution of endogenous fatty acid ethanolamide to the anti-inflammatory effect of atractylodin, cellular PEA and OEA levels were measured by HPLC-MS/MS analysis. […]

Substrate in data set [5]: CCCCCCCCCCCCCCCC(=O)Nc1ccc2c(C)cc(=O)oc2c1
Nature of the data set: Fluorometric NAAA activity assay (PAMCA hydrolysis). In kind it is biochemical, human. Particulars: other: pH 4.5, 37.0 °C. On the procedure: as §1
Although several compounds have been discovered as NAAA inhibitors, reports on natural derivatives are limited. Here, we constructed a small library of 465 natural compounds consisting of alkaloids, flavonoids, coumarins, terpenoids, polyacetylenes, and aliphatics for activity screening. […]

Where [6] appears, read: recombinant human NAAA, PAMCA 25 µM, pH 4.5, 37 °C 30 min, read-out: IC50, NAAA inhibition.

Read-outs that look alike come from different tables or passages of the source.

For the molecule `C\C(C=C=C1C(C)(C)C[C@H](O)C[C@@]1(C)O)=C/C=C/C(C)=C/C=C/C=C(C)/C=C/C=C(\C)C(=O)C[C@@]12O[C@]1(C)C[C@@H](O)CC2(C)C` [fucoxanthinol], the IC50 in the data set with NAAA (ref Jin et al., 2020) is 12.8 µM.
With `COc1cc(C[C@H](C)[C@H](C)Cc2ccc3c(c2)OCO3)ccc1O` [anwuligan], the IC50 in data set [1] (setting [6]) worked out at 23.8 ± 1.06 µM.
Same read-out and setting: the same measure for `O=c1cc(-c2ccc(O)c(-c3c(O)cc(O)c4c(=O)cc(-c5ccc(O)cc5)oc34)c2)oc2cc(O)cc(O)c12` [amentoflavone]: 37.8 ± 4.04 µM; for `c1cc2c(cc1[C@H]1OC[C@H]3[C@@H]1CO[C@@H]3c1ccc3c(c1)OCO3)OCO2` [sesamin]: 30.2 ± 2.09 µM.
On to `C/C=C/C#CC#C/C=C/c1ccco1` [atractylodin], for which, in the data set with LPS-induced BV-2 cells [2], the “inhibition of IL-1β production” value was “in a dose-dependent manner”, the “inhibition of IL-6 production” value is listed as “in a dose-dependent manner” and the “inhibition of TNF-α production” value is recorded as “in a dose-dependent manner”. For the same molecule, the “decrease of LPS-induced nitrite production” value in data set [3] (10 µM, 30 min pre-incubation, LPS 24 h, compared with vehicle group) came to 68.21%. Also, the “inhibition of nitrite generation” value in data set [3] (1–10 µM, LPS-induced BV-2 cells) is recorded as “in a dose-dependent manner”. In data set [1], the IC50 was 2.81 µM; the “time course of NAAA inhibition (pre-incubation with hNAAA)” value was “rapid and unaffected by longer pre-incubation”. The “mechanism of NAAA inhibition (Lineweaver-Burk plot)” value in data set [1] (atractylodin 3 µM) is listed as “competitive”. The “NAAA activity after dialysis of the NAAA-inhibitor mixture” value in data set [1] (dialysis in PBS buffer) is recorded as “fully recovered”. In the data set with LPS-induced BV-2 cells [4], the “cellular OEA level” value was “significantly increased” and the “cellular PEA level” value is “significantly increased”.
For the molecule `CC(=O)Oc1cccc2c1C(=O)c1c(OC(C)=O)cc(C(=O)O)cc1C2=O` [diacerein], in the data set on NAAA (ref Petrosino et al., 2015), the IC50 was 7.2 µM.
For the molecule `COc1ccc2cc1Oc1ccc(cc1)CC1c3cc(c(OC)cc3CCN1C)Oc1c(OC)c(OC)cc3c1C(C2)N(C)CC3` [D-tetrandrine], the IC50 in data set [1] (setting [6]) was 52.9 ± 3.05 µM.

B1: recombinant human NAAA protein (Homo sapiens) (protein)
chain: T1 sequence (Q02083 29-359)
notes: purchased R&D Systems (Shanghai, China)
For B1, the Km in data set [5] turned out to be 17.92 ± 3.54 µM.

The record behind these values is PMC7565389, “Natural Potent NAAA Inhibitor Atractylodin Counteracts LPS-Induced Microglial Activation” (Frontiers in Pharmacology, 2020).
